Measured values taken from US10913922B2, “N-acylated methionine derivatives as food flavoring compounds” (Givaudan S.A., priority 2012, dated 2021).
Entries after “also recorded” stand apart in the source; their conditions may differ.

Assays:
[1] = Expert taster evaluation in lemon beverage; settings: 1 ppm in lemon beverage (water, 7% sucrose, 0.15% citric acid, lemon flavor), base alone: floral, citral
Protocol: (§1) Samples were evaluated by expert tasters. Tasters were asked to describe the samples focusing on authentic taste, mouthfeel, fullness, salty-ness, salivation, umami, sweetness, juiciness, richness, long lastingness and fattiness
Basis water, 7% sucrose, 0.15% citric acid, proprietary lemon flavor

[2] = Expert taster evaluation in beef bouillon; settings: base alone: salty, umami, powdery
Protocol: as §1
Comparison in Beef Bouillon
Base is Maggi beef bouillon 1 tablet in 500 ml of hot water

[3] = Expert taster evaluation in a mango juice drink; settings: 1 ppm in mango juice drink base (8% sucrose, 0.1% citric acid, 1% clear mango juice, mango flavour 0.05%); base alone: fruity mango
Protocol: as §1
Comparison in a Mango Juice Drink
Base is 8% sucrose, 0.1% citric acid, 1% clear mango juice, proprietary mango flavour @ 0.05%

[4] = Expert taster evaluation in orange beverage; settings: 1 ppm in orange beverage (water, 7% sugar, 0.1% citric acid, orange flavour 0.06%); base alone: orange, fruity, slightly candy
Protocol: as §1
Base is water, 7% sugar, 0.1% citric acid, proprietary orange flavour @ 0.06%

[5] = 1 ppm in Maggi beef bouillon (1 tablet in 500 ml hot water)

Q: For `CCCCCCCC/C=C\CCCCCCCC(=O)NC(CCSC)C(=O)O` (centres unmarked) [C18:1-met], which “taste description by expert tasters” value [1] is on record?
A: fresh, less floral, very juicy, very authentic

Q: What about the “taste description by expert tasters” value [2, 5] of the same compound?
A: very strong salty impact and aftertaste; also recorded: very strong salty impact and aftertaste, more fatty, mouthfeel, lingering full bodied

Q: And the “taste description by expert tasters” value ([2]; 25 ppb in Maggi beef bouillon)?
A: more peppery, more salty

Q: And the “taste description by expert tasters” value ([2]; 50 ppb in Maggi beef bouillon)?
A: more salty, more bouillon taste

Q: And the “taste description by expert tasters” value [3]?
A: sweeter, juicy, salivating

Q: And the “taste description by expert tasters” value [4]?
A: very juicy fresh, authentic, juicy

Q: What does the source list for `CCCCC/C=C\C/C=C\CCCCCCCC(=O)NC(CCSC)C(=O)O` (centres unmarked) [C18:2-met]?
A: taste description by expert tasters [2, 5]: salivating salty, umami; taste description by expert tasters [3]: fresh nice juicy

Q: With `CCCCCCCCCCCCCCCC(=O)NC(CCSC)C(=O)O` (centres unmarked) [C16:0-met] as the compound, how does the “taste description by expert tasters” value [2, 5] read?
A: salty, full, nice salivating, lingering

Q: And the “taste description by expert tasters” value [3]?
A: fatty, full body, juicy, metallic

Q: What about the “taste description by expert tasters” value [4] of the same compound?
A: slightly metallic, fresh

Q: With `CCCCCCCC(=O)N[C@@H](CCSC)C(=O)O` [C8:0-met] as the compound, how does the “taste description by expert tasters” value [2, 5] read?
A: more salty, no additional fullness

Q: What about the “taste description by expert tasters” value [3] of the same compound?
A: green fresh, no additional body

Q: Which “taste description by expert tasters” value [1] does the source give for `CCCCCC/C=C\CCCC(=O)NC(CCSC)C(=O)O` (centres unmarked) [C12:1-met] here?
A: fresh, slightly more citral

Q: What about the “taste description by expert tasters” value [2, 5] of the same compound?
A: more salty

Q: And the “taste description by expert tasters” value [3]?
A: ripe full, more juicy, slightly metallic

Q: And the “taste description by expert tasters” value [4]?
A: nice orange, fresh
